Series [1] has as its system ApoE-deficient mice. Briefly: developmental milestones (placing response, cliff avoidance) in ApoE-deficient mice. In kind it is in vivo. To be noted: for acquisition of the placing response and the cliff avoidance response: daily injection; for marked improvement of placing response at the first day of treatment: tested 60 min. after injection. An excerpt:
Animals (15-37 per experimental group, 5-8 per litter) were submitted to placing response assays daily following injection of: 1. saline (open circles, C57B6 mice=control, n=37, closed circles, ApoE deficient=ApoE, n=22). Experiments were repeated three times. Score indicates: 0=no reaction, 1=time to acquire a response shorter than 15 seconds; 2=time to acquire a response shorter than 10 seconds; 3=time to acquire a response shorter than 5 seconds. Age (days) indicate: the age of the tested animals in days. Results are mean±SEM.
(§1) ApoE knockout mice and normal controls were a gift from the late Prof. Shlomo Eisenberg of Tel Aviv University, originally provided by Dr. J. L. Breslow (Plump et al., Cell 71:343-353 (1992)). The ApoE knockout mice were obtained from embryonic stem cells OLA 129 in C57B6×FVB mice (as described). Age-matched controls were inbred C57B6 mice. Groups of mouse pups were treated from birth until the age of 14 days. Daily subcutaneous injections included: […] saline (days 1 through 4), […] saline (days 5 through 10) and […] saline (days 11-14).
Developmental milestones were measured using at least three dams with […] each for every experimental point. All observations were made between 12 noon and 4 pm. From day one through day six, mice were weighed and tested 60 min. after the daily injection. Placing is a behavioral parameter that is measured as the time elapsing between contact of the foot against the edge of an object and its placing on the top of the same object.
Further measurements in the Apo-E-deficient mouse included assessments of the time of onset of developmental milestones of behavior. […] A significant difference was observed among the treatment groups on the first day of testing (P<0.0001), with inbred C57B6 mice developing faster than the ApoE-deficient animals. […] NAP-treated animals were the fastest.

For series [2], the system named is choline acetyl transferase. Nature of the series: brain ChAT (choline acetyl transferase) activity in ApoE-deficient mice. The class given is in vivo. To be noted: daily subcutaneous injections from birth to 14 days, measured at 21 days. On the procedure: The graph depicts incorporation of radio-labeled choline into acetylcholine. Experiments were conducted as described. Apo-E deficient mice are designated: ApoE; 100% activity in the control (C57B6) mice indicated 669758.4 pmole/mg protein/min. As the experiments were repeated 3-5 times the results were standardized against the control calibrated at 100% per each experiment. ApoE-deficient mice daily injected with peptides are designated ADNF-14, ADNF-9, and NAP, respectively.
ChAT activity was measured according to published procedures (Formum et al., Neurochem. 24:407-409 (1975)). Brains were homogenized with 10 volumes of 50 mM phosphate buffer containing 300 mM NaCl, 20 mM EDTA, and 0.5% triton. The homogenates were centrifuged at 12,000×g for 15 min., and […] of supernatant was mixed with […] of a solution of […] ^14C-acetyl CoA ([…] NEN), 20 mM acetylcholine, 1.6 mM choline chloride, 0.25 mM eserine, and phosphate buffer. Incubation was 15 min. at 37° C. The reaction was terminated and radioactivity was measured in a beta-counter. • 21. Apolipoprotein E (ApoE) Deficient Mouse Model
as §1
ChAT activity was measured according to published procedures (Formum et al., Neurochem. 24:407-409 (1975)).

Series [3] deals with cerebral cortical cultures. In kind it is cell-based, newborn rats. To be noted: for dilutions giving significant neuroprotection against tetrodotoxin: dilutions of a 1 mg/ml protein solution (E. coli extract) in PBS, 1 μM tetrodotoxin, five days.
In series [4] the test system is astrocytes. Briefly: western blot of secreted ADNF-like immunoreactivity in astrocyte conditioned medium. The class given is cell-based, rat. From the text: FIGS. 4A-B. FIG. 4A illustrates the western blot hybridization for immunological detection of the cloned ADNF III protein from bacterial extracts. Bacterial extracts expressing clone p25 were subjected to 10% SDS-polyacrylamide gel electrophoresis followed by western blot analysis with the antibodies used for cloning. […] CBB=Coomassie Brilliant Blue (protein) staining of the same lanes that were subjected western blot analysis. […] FIG. 4B illustrates immunological identification of a secreted ADNF III protein in astrocyte conditioned medium. Astrocyte-conditioned medium was prepared as described supra (see Brenneman & Gozes, J. Clin. Invest. 97:[…] (1996)), with a protein of a high molecular weight identified as the ADNF III molecule by western blot hybridization. SDS-polyacrylamide gel electrophoresis was performed as indicated in the above cited paper. Astroglial cultures obtained from newborn rat cerebral cortex were utilized. Cell extracts and conditioned medium from astrocytes that were treated or untreated with VIP (+, −) were subjected to electrophoresis through 10% polyacrylamide slab gel containing 0.1% SDS. Western blot analysis was performed with antibodies utilized for the cloning (anti-SALLRSIPA=α1).
a. Astrocytes: Astrocytes were prepared from 1-day-old (Sprague-Dawley) rats. […]
In general terms: Immunoblotting shows a protein as a band on a membrane.

In series [5] the test system is ADNF III mRNA. Nature of the series: mimic polymerase chain reaction of ADNF III mRNA in mouse embryos incubated in vitro. To be noted: 9.5-day-old mouse embryos incubated in vitro for four hours, ratio with cyclophilin mRNA. The class given is cell-based.
For series [6], the system named is cerebral cortical cultures. Briefly: neuroprotection against β-amyloid peptide (25-35) neurotoxicity in cerebral cortical cultures. The class given is cell-based, newborn rats. To be noted: dilutions of a 1 mg/ml protein solution (E. coli extract) in PBS, 25 μM β-amyloid fragment 25-35, five days.
For series [7], the system named is neuronal cell death. Nature of the series: neuroprotective effects of ADNF III (summary statement). In kind it is cell-based. An excerpt: The present invention relates to the discovery of a nucleic acid encoding a novel neuroprotective polypeptide, i.e., Activity Dependent Neurotrophic Factor III (ADNF III), also called Activity Dependent Neuroprotective Protein (ADNP). […] Based on the recognized homology between ADNF I and hsp60, a heat shock protein, and PIF1, a DNA repair protein, these two epitopes were utilized to prepare antibodies which, in turn, were used to screen a mouse cDNA-expression library to identify the new neuroprotective polypeptide ADNF III. One mouse ADNF III cDNA clone consists of about 2418 base pairs of an open reading frame, which encodes an ADNF III polypeptide of about 806 amino acids, pI 5.85 (nucleotide sequence, SEQ ID NO:4; amino acid sequence, SEQ ID NO:3, see FIG. 1). An additional mouse cDNA has been cloned, encoding an ADNF III polypeptide of about 828 amino acids, pI 5.99 (nucleotide sequence, SEQ ID NO:54; amino acid sequence, SEQ ID NO:55; see FIG. 11). Human cDNAs encoding ADNF III have also been cloned (“H3” nucleotide sequence, SEQ ID NO:2; “H3” amino acid sequence, SEQ ID NO:1; “H3” nucleotide sequence, SEQ ID NO:56 and FIG. 12; “H3” amino acid sequence, SEQ ID NO:57 and FIG. 12; “H7” nucleotide sequence, SEQ ID NO:58 and FIG. 13; and “H7” amino acid sequence, SEQ ID NO:59 and FIG. 13). […] The promoter sequence for ADNF III has also been cloned (SEQ ID NO:60 and FIG. 14).

Where two headings read alike, the source gives them in different places.

Turning to SALLRSIPA [ADNF-9], the “placing response from the second postnatal day onwards” value in series [1] (P<0.0001) is reported as “best performers”. Besides, in series [1], the “acquisition of the placing response and the cliff avoidance response” value is reported as “showed acceleration”; the “marked improvement of placing response at the first day of treatment” value is on record as “marked improvement”. Besides, the “brain ChAT activity compared with vehicle-treated or untreated ApoE-deficient mice” value in series [2] is “did not significantly improve”.

On to SVRLGLGGNAPVSIPQQS [reference compound], for which the “neuroprotection (in words)” value in series [3] (FIG. 6A/6B, toxin for the control curves not stated) was “inactive”.

“VIP: 28-amino acid peptide, secretagogue for ADNF”: the “increase in the secreted 60 KD ADNF-like immunoreactivity” value in series [4] is recorded as “up to 2 fold”. Moreover, the “increase in ADNF III mRNA” value in series [5] is “two-fold”.

Consider VLGGGSALLRSIPA [ADNF-14], for which, in series [1], the “level of performance reached in placing response” value was “never reached the level of performance of the NAP or ADNF-9 animals”; the “acquisition of the placing response and the cliff avoidance response” value is given as “showed acceleration”; the “marked improvement of placing response at the first day of treatment” value was “not”. In addition, the “day on which a significant difference between treated and untreated animals began to appear (placing response)” value in series [1] (P<0.05) was “third postnatal day”. Moreover, the “brain ChAT activity compared with vehicle-treated or untreated ApoE-deficient mice” value in series [2] was “did not significantly improve”.

B1: clone 25: full length ADNF III expressed from clone 25, tested as E. coli protein extract (protein)
chain: MVNRLSIPKPNLNSTGVNMMSNVHLQQNNYGVKSVGQSYGVGQSVRLGLGGNAPVSIPQQSQSVKQLLPSGNGRSFGLGAEQRPPAAARYSLQTANTSLPPGQVKSPSVSQSQASRVLGQSSSKPPPAATGPPPSNHCATQKWKICTICNELFPENVYSVHFEKEHKAEKVPAVANYIMKIHNFTSKCLYCNRYLPTDTLLNHMLIHGLSCPYCRSTFNDVEKMAAHMRMVHIDEEMGPKTDSTLSFDLTLQQGSHTNIHLLVTTYNLRDAPAESVAYHAQNNAPVPPKPQPKVQEKADVPVKSSPQAAVPYKKDVGKTLCPLCFSILKGPISDALAHHLRERHQVIQTVHPVEKKLTYKCIHCLGVYTSNMTASTITLHLVHCRGVGKTQNGQDKTNAPSRLNQSPGLAPVKRTYEQMEFPLLKKRKLEEDADSPSCFEEKPEEPVVLALDPKGHEDDSYEARKSFLTKYFNKQPYPTRREIEKLAASLWLWKSDIASHFSNKRKKCVRDCEKYKPGVLLGFNMKELNKVKHEMDFDAEWLFENHDEKDSRVNASKTVDKKHNLGKEDDSFSDSFEHLEEESNGSGSPFDPVFEVEPKIPSDNLEEPVPKVIPEGALESEKLDQKEEEEEEEEEDGSKYETIHLTEEPAKLMHDASDSEVDQDDVVEWKDGASPSESGPGSQQISDFEDNTCEMKPGTWSDESSQSEDARSSKPAAKKKATVQDDTEQLKWKNSSYGKVEGFWSKDQSQWENASENAERLPNPQIEWQNSTIDSEDGEQFDSMTDGVADPMHGSLTGVKLSSQQA
modifications: left off: large carriers
notes: full length ADNF III expressed from clone 25, tested as E. coli protein extract
On to B1, for which the “dilutions giving significant neuroprotection against tetrodotoxin” value in series [3] is on record as 10^−15-10^−13; in series [3] (listed as clone p25) it was 10^−14. Moreover, the figures for the “dilutions giving significant neuroprotection against β-amyloid” value in series [6] and in series [6] (listed as clone p25) were > 10^−15 and 10^−14, respectively. Further, the “EC50 of neuroprotective effects” value in series [7] was “in the femtomolar range”.

The record behind these values is patent US7264947B2, “Activity dependent neurotrophic factor III (ADNF III)” (United States of America, as represented by the Secretary …, priority 1997, dated 2007).
